Values after ≈ are worked out from the molar mass of the structure shown. Positions of bridges follow the written chain, without caps; N, C: chain ends. Non-standard residues stand in square brackets, D forms with d. Residues, ends and D or L forms follow the SMILES beside them. *: point of attachment. Phenylthio(4-OPh) = c1ccc(Oc2ccc(S*)cc2)cc1; S(2-cyclohexylethyl) = C1CCC(CCS*)CC1; S(3-Methylbutyl) = CC(C)CCS*; X6 = c1ccc(-c2ccc(S*)cc2)cc1; Dab = NCC[C@H](N)C(=O)O; X1 = CC(C)CCCCS*; X4 = CCCCCCS*
How the values were obtained:
[1] = system: A. baumannii (ATCC 19606); format: cell-based; conditions: ATCC 19606
Method: (§1) Minimum inhibitory concentrations (MICs) on relevant Gram-negative bacteria were determined by broth microdilution, in accordance with CLSI guidelines. Indicated bacteria were taken from glycerol stocks and incubated overnight on blood agar at 37 °C. Well-isolated colonies were taken, suspended in TSB (5 mL), and grown to an OD600 of 0.5. Compounds to be tested were dissolved in DMSO (6.4 mg/mL), diluted in cation-adjusted Mueller–Hinton Broth (CAMHB) (12.5 and 20 μg/mL Mg^2+ and Ca^2+, respectively), and diluted serially on polypropylene microtiter plates. To the diluted compounds (50 μL per well) was added 50 μL of relevant bacterial suspension, to yield a final concentration of 10^6 CFU/mL. Plates were covered by adhesive gas-permeable membranes and incubated at 37 °C. MIC was read out as the lowest concentration that inhibited visual bacterial growth. Shown values are consistent results from at least duplicate experiments.

[2] = system: P. aeruginosa (ATCC 27853); format: cell-based; conditions: ATCC 27853
Method: as §1

[3] = system: E. coli (ATCC 25922); format: cell-based; conditions: ATCC 25922
Method: as §1

[4] = system: K. pneumoniae (ATCC 13883); format: cell-based; conditions: ATCC 13883
Method: as §1

[5] = system: differentiated conditionally immortalized PTECs (ciPTECs, OAT-1); test: ciPTEC toxicity assay (PrestoBlue); format: cell-based, human
Method: ciPTECs (OAT-1) cells,[52],[53] grown to 90–100% confluence, were washed by Hanks’ balanced salt solution (HBSS; Gibco, Life Technologies, Paisley, U.K.) and detached by accutase (4 mL) for 5 min at 37 °C. The cells were then suspended in fresh medium (DMEM/F-12, supplemented with 10% fetal calf serum, insulin (5 μg/mL), transferrin (5 μg/mL), selenium (5 μg/mL) hydrocortisone (35 ng/mL), Epidermal Growth Factor (10 ng/mL) and tri-iodothyronine (40 pg/mL)). Cell density was adjusted to 2.0 × 10^5 cells/mL, of which 100 μL was added to each well of a 96-well plate. The cells were incubated for 24 h at 33 °C, followed by 6 days at 37 °C, in a humidified atmosphere containing 5% (v/v) CO2. The medium was refreshed every second or third day.
Compounds were dissolved and serially diluted in serum-free medium. Differentiated cells were washed once with HBSS and serially diluted compounds (80 μL/well) were transferred to the ciPTEC-containing plate. Compounds were incubated for 24 h at 37 °C; the cells were washed by HBSS, followed by incubation with 10% PrestoBlue cell viability reagent (Thermo Scientific, Vienna, Austria) in HBSS at 37 °C in the dark. Fluorescence was recorded (excitation: 530 nm, emission: 590 nm). Raw data are corrected for PrestoBlue background fluorescence and reported relative to the no-treatment control (cells with medium only). Viability data were fitted with GraphPad Prism software (version 5.03; GraphPad Software, La Jolla, CA), by nonlinear regression with 0 as bottom constraint. Presented data are based on triplicates.
Toxicity assessment on PTECs
Table S1. TC50 values for polymyxin analogues. Toxicity assessment on proximal tubular epithelial cells
performed using PrestoBlue™ assay. TC50 values are derived after non-linear regression analysis on cell viability
correspond to data obtained from 2 different batches of cells/analyses on different days. As the value for
polymyxin B differs 2-fold, values in the manuscript are presented relative to the polymyxin B value.
Compound TC50 (µ M) Compound TC50 (µ M)
Polymyxin B 80 Polymyxin B 41
Figure S3. Representative traces of ciPTECs’ viability after incubation with analogues for 24 hours. Shown data are based on […]

SMILES	MIC A. baumannii (ATCC 19606) [1] [µg/mL]	MIC P. aeruginosa (ATCC 27853) [2] [µg/mL]	MIC E. coli (ATCC 25922) [3] [µg/mL]	MIC K. pneumoniae (ATCC 13883) [4] [µg/mL]	TC50, Day 1 [5] [µM]	ciPTEC Toxicity Index (relative to polymyxin B) [5]
CC(C)C[C@@H]1NC(=O)[C@@H](Cc2ccccc2)NC(=O)[C@H](CCN)NC(=O)[C@@H](NC(=O)[C@H](CCN)NC(=O)[C@@H](NC(=O)[C@@H](CSSc2ccc(Oc3ccccc3)cc2)NC(=O)CN)[C@@H](C)O)CCNC(=O)[C@H]([C@@H](C)O)NC(=O)[C@H](CCN)NC(=O)[C@H](CCN)NC1=O [Compound 32b] (H-G[dC](Phenylthio(4-OPh))T[Dab][Dab][Dab][dF]L[Dab][Dab]T; lactam 5-C)	8 (≈ 6.04 µM)	4 (≈ 3.02 µM)	8 (≈ 6.04 µM)	4 (≈ 3.02 µM)		
CC(C)CCCCSSC[C@H](N)C(=O)N[C@H](C(=O)N[C@@H](CCN)C(=O)N[C@H]1CCNC(=O)[C@H]([C@@H](C)O)NC(=O)[C@H](CCN)NC(=O)[C@H](CCN)NC(=O)[C@H](CC(C)C)NC(=O)[C@@H](Cc2ccccc2)NC(=O)[C@H](CCN)NC1=O)[C@@H](C)O [Compound 20a] (H-C(X1)T[Dab][Dab][Dab][dF]L[Dab][Dab]T; lactam 4-C)	4 (≈ 3.34 µM)	2 (≈ 1.67 µM)	2 (≈ 1.67 µM)	1 (≈ 0.836 µM)		
CC(C)C[C@@H]1NC(=O)[C@@H](Cc2ccccc2)NC(=O)[C@H](CCN)NC(=O)[C@@H](NC(=O)[C@H](CCN)NC(=O)[C@@H](NC(=O)[C@@H](N)CSSc2ccc(-c3ccccc3)cc2)[C@@H](C)O)CCNC(=O)[C@H]([C@@H](C)O)NC(=O)[C@H](CCN)NC(=O)[C@H](CCN)NC1=O [Compound 29a] (H-C(X6)T[Dab][Dab][Dab][dF]L[Dab][Dab]T; lactam 4-C)	32 (≈ 25.6 µM)	8 (≈ 6.4 µM)	4 (≈ 3.2 µM)	4 (≈ 3.2 µM)		
CC(C)C[C@@H]1NC(=O)[C@@H](Cc2ccccc2)NC(=O)[C@H](CCN)NC(=O)[C@@H](NC(=O)[C@H](CCN)NC(=O)[C@@H](NC(=O)[C@H](N)CSSc2ccc(-c3ccccc3)cc2)[C@@H](C)O)CCNC(=O)[C@H]([C@@H](C)O)NC(=O)[C@H](CCN)NC(=O)[C@H](CCN)NC1=O [Compound 29b] (H-[dC](X6)T[Dab][Dab][Dab][dF]L[Dab][Dab]T; lactam 4-C)	8 (≈ 6.4 µM)	8 (≈ 6.4 µM)	8 (≈ 6.4 µM)	2 (≈ 1.6 µM)		
CC(C)C[C@@H]1NC(=O)[C@@H](Cc2ccccc2)NC(=O)[C@H](CCN)NC(=O)[C@@H](NC(=O)[C@H](CCN)NC(=O)[C@@H](N)[C@@H](C)O)CCNC(=O)[C@H]([C@@H](C)O)NC(=O)[C@H](CCN)NC(=O)[C@H](CCN)NC1=O [PMBN, polymyxin B nonapeptide, reference compound] (H-T[Dab][Dab][Dab][dF]L[Dab][Dab]T; lactam 3-C)	>32	>32	>32	>32		
CC(C)CCSSC[C@H](NC(=O)CN)C(=O)N[C@H](C(=O)N[C@@H](CCN)C(=O)N[C@H]1CCNC(=O)[C@H]([C@@H](C)O)NC(=O)[C@H](CCN)NC(=O)[C@H](CCN)NC(=O)[C@H](CC(C)C)NC(=O)[C@@H](Cc2ccccc2)NC(=O)[C@H](CCN)NC1=O)[C@@H](C)O [Compound 22a] (H-GC(S(3-Methylbutyl))T[Dab][Dab][Dab][dF]L[Dab][Dab]T; lactam 5-C)	4 (≈ 3.26 µM)	2 (≈ 1.63 µM)		2 (≈ 1.63 µM)	305	3.8
CC(C)C[C@@H]1NC(=O)[C@@H](Cc2ccccc2)NC(=O)[C@H](CCN)NC(=O)[C@@H](NC(=O)[C@H](CCN)NC(=O)[C@@H](NC(=O)[C@H](CSSc2ccc(-c3ccccc3)cc2)NC(=O)CN)[C@@H](C)O)CCNC(=O)[C@H]([C@@H](C)O)NC(=O)[C@H](CCN)NC(=O)[C@H](CCN)NC1=O [Compound 31a] (H-GC(X6)T[Dab][Dab][Dab][dF]L[Dab][Dab]T; lactam 5-C)	16 (≈ 12.2 µM)	8 (≈ 6.12 µM)	4 (≈ 3.06 µM)	2 (≈ 1.53 µM)		
CC(C)C[C@@H]1NC(=O)[C@@H](Cc2ccccc2)NC(=O)[C@H](CCN)NC(=O)[C@@H](NC(=O)[C@H](CCN)NC(=O)[C@@H](NC(=O)[C@@H](N)CSSCCC2CCCCC2)[C@@H](C)O)CCNC(=O)[C@H]([C@@H](C)O)NC(=O)[C@H](CCN)NC(=O)[C@H](CCN)NC1=O [Compound 19a] (H-C(S(2-cyclohexylethyl))T[Dab][Dab][Dab][dF]L[Dab][Dab]T; lactam 4-C)	32 (≈ 26.5 µM)	4 (≈ 3.31 µM)	8 (≈ 6.62 µM)	4 (≈ 3.31 µM)		
CC(C)C[C@@H]1NC(=O)[C@@H](Cc2ccccc2)NC(=O)[C@H](CCN)NC(=O)[C@@H](NC(=O)[C@H](CCN)NC(=O)[C@@H](NC(=O)[C@@H](CSSc2ccc(-c3ccccc3)cc2)NC(=O)CN)[C@@H](C)O)CCNC(=O)[C@H]([C@@H](C)O)NC(=O)[C@H](CCN)NC(=O)[C@H](CCN)NC1=O [Compound 31b] (H-G[dC](X6)T[Dab][Dab][Dab][dF]L[Dab][Dab]T; lactam 5-C)	16 (≈ 12.2 µM)	8 (≈ 6.12 µM)	8 (≈ 6.12 µM)	4 (≈ 3.06 µM)		
CC(C)C[C@@H]1NC(=O)[C@@H](Cc2ccccc2)NC(=O)[C@H](CCN)NC(=O)[C@@H](NC(=O)[C@H](CCN)NC(=O)[C@@H](NC(=O)[C@@H](N)CSSc2ccc(Oc3ccccc3)cc2)[C@@H](C)O)CCNC(=O)[C@H]([C@@H](C)O)NC(=O)[C@H](CCN)NC(=O)[C@H](CCN)NC1=O [Compound 30a] (H-C(Phenylthio(4-OPh))T[Dab][Dab][Dab][dF]L[Dab][Dab]T; lactam 4-C)	>32	4 (≈ 3.16 µM)	4 (≈ 3.16 µM)	4 (≈ 3.16 µM)		
CCCCCCSSC[C@H](NC(=O)CN)C(=O)N[C@H](C(=O)N[C@@H](CCN)C(=O)N[C@H]1CCNC(=O)[C@H]([C@@H](C)O)NC(=O)[C@H](CCN)NC(=O)[C@H](CCN)NC(=O)[C@H](CC(C)C)NC(=O)[C@@H](Cc2ccccc2)NC(=O)[C@H](CCN)NC1=O)[C@@H](C)O [Compound 21a] (H-GC(X4)T[Dab][Dab][Dab][dF]L[Dab][Dab]T; lactam 5-C)	2 (≈ 1.61 µM)	2 (≈ 1.61 µM)	4 (≈ 3.23 µM)	1 (≈ 0.807 µM)		
CC(C)C[C@@H]1NC(=O)[C@@H](Cc2ccccc2)NC(=O)[C@H](CCN)NC(=O)[C@@H](NC(=O)[C@H](CCN)NC(=O)[C@@H](NC(=O)[C@H](N)CSSc2ccc(Oc3ccccc3)cc2)[C@@H](C)O)CCNC(=O)[C@H]([C@@H](C)O)NC(=O)[C@H](CCN)NC(=O)[C@H](CCN)NC1=O [Compound 30b] (H-[dC](Phenylthio(4-OPh))T[Dab][Dab][Dab][dF]L[Dab][Dab]T; lactam 4-C)	4 (≈ 3.16 µM)	4 (≈ 3.16 µM)	4 (≈ 3.16 µM)	2 (≈ 1.58 µM)		
CC(C)C[C@@H]1NC(=O)[C@@H](Cc2ccccc2)NC(=O)[C@H](CCN)NC(=O)[C@@H](NC(=O)[C@H](CCN)NC(=O)[C@@H](NC(=O)[C@H](CSSc2ccc(Oc3ccccc3)cc2)NC(=O)CN)[C@@H](C)O)CCNC(=O)[C@H]([C@@H](C)O)NC(=O)[C@H](CCN)NC(=O)[C@H](CCN)NC1=O [Compound 32a] (H-GC(Phenylthio(4-OPh))T[Dab][Dab][Dab][dF]L[Dab][Dab]T; lactam 5-C)	32 (≈ 24.2 µM)	8 (≈ 6.04 µM)	8 (≈ 6.04 µM)	4 (≈ 3.02 µM)		
